US4188485A, “1-[(10,11-Dihydro-5H-dibenzo[a,d]-cyclohepten-5-yl)methyl]-4-substituted piperidines and related compounds” (G. D. Searle & Co., priority 1978, dated 1980)

Key:
dopamine receptors [1] = assay: Receptor Binding Assay, displacement of ^3 H-dopamine binding to calf caudate membranes; details: for IC50: read-out: ^3 H-Dopamine (IC50), calf caudate membrane homogenate, 37° C., 10 minutes, non-specific binding with 10^-5 M (+)-Butaclamol
dopamine receptors [2] = assay: biochemical; assay type: binding; details: ^3 H-Haloperidol and ^3 H-Spiroperidol versus ^3 H-dopamine sites; compared with clozapine and chloropromazine
dopamine receptors [3] = target: dopamine receptors (Bos taurus, UniProt P20288); assay: biochemical; assay type: binding; details: 1.6 nM ^3 H-haloperidol, calf caudate membrane homogenate, 37° C., 10 minutes; non-specific binding with 10^-4 M dopamine
Chain of dopamine receptors (Bos taurus, UniProt P20288) (P20288 whole entry): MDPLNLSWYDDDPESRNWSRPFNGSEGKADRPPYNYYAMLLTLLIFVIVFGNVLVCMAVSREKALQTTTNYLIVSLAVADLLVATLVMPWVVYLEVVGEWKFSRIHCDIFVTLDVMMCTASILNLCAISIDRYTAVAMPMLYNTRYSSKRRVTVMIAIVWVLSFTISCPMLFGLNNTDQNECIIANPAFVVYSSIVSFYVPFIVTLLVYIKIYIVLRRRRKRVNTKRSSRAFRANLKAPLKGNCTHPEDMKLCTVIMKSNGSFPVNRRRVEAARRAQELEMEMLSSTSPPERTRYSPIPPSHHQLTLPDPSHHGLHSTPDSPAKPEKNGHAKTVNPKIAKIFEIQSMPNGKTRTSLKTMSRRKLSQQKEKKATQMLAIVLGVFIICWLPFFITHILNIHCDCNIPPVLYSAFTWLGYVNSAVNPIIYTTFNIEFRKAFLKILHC

dopamine receptors [4] = assay: Receptor Binding Assay, displacement of ^3 H-Spiroperidol binding to calf caudate membranes; details: read-out: ^3 H-Spiroperidol (IC50); 0.15 nM ^3 H-Spiroperidol, calf caudate membrane homogenate, 37° C., 20 minutes; non-specific binding with 10^-5 M (+)-Butaclamol

SMILES | IC50 (dopamine receptors [1]) [nM] | IC50 (dopamine receptors [3]) [nM] | IC50 (dopamine receptors [4]) [nM] | ^3 H-Dopamine, % at 10^-4 (dopamine receptors [1]; at 10^-4, calf caudate membrane homogenate, 37° C., 10 minutes, 100 µM) [%] | antagonist ratios (dopamine receptors [2])
CC(C)(C)C1(O)CCN(CC2c3ccccc3C=Cc3ccccc32)CC1.Cl [Compound D, 4-tert-butyl-1-[(5H-dibenzo[a,d]cyclohepten-5yl)methyl]-4-piperidinol, hydrochloride] | 7200 | 37 | 1500 |  | comparable to clozapine and chloropromazine
CC(C)(C)C1(O)CCN(CC2c3ccccc3CCc3ccccc32)CC1 [Compound A] | 15000 | 2.4 | 860 |  | comparable to clozapine and chloropromazine
CC(C)(C)C1(O)CCN(CC2c3ccccc3CCc3ccc(Br)cc32)CC1.Cl (stereo not shown) [Compound C, 4-tert-butyl-1-[(3-bromo-10,11-dihydro-5H-dibenzo[a,d]cyclohepten-5-yl)methyl]-4-piperidinol hydrochloride] | 1700 | 280 | 220 |  | comparable to clozapine and chloropromazine
CC(C)(C)C1(O)CCN(CC(c2ccccc2)c2ccccc2)CC1 [Compound H, 4-tert-butyl-1-(2,2-diphenylethyl)-4-piperidinol] | 60000 | 160 | 3600 |  | comparable to clozapine and chloropromazine
Cl.Cl.NC1CCN(CC2c3ccccc3CCc3ccccc32)CC1 [Compound E, 1-[(10,11-dihydro-5H-dibenzo[a,d]cyclohepten-5-yl)methyl]-4-piperidinamine, dihydrochloride] |  | 2500 | 30000 | 27 | comparable to clozapine and chloropromazine

Continued by falling IC50 (dopamine receptors [3]), values first:

IC50 (dopamine receptors [1]) [nM] | IC50 (dopamine receptors [3]) [nM] | IC50 (dopamine receptors [4]) [nM] | ^3 H-Dopamine, % at 10^-4 (dopamine receptors [1]; at 10^-4, calf caudate membrane homogenate, 37° C., 10 minutes, 100 µM) [%] | SMILES | antagonist ratios (dopamine receptors [2])
 | 10000 |  |  | O=C1CCN(CC(c2ccc(Cl)cc2)c2ccc(Cl)cc2)CC1C1(O)CCN(CC(c2ccc(Cl)cc2)c2ccc(Cl)cc2)CC1 (stereo not shown) [Compound K, 1-[2,2-bis(p-chlorophenyl)ethyl]-3-{1-[2,2-bis(p-chlorophenyl)ethyl]-4-hydroxypiperidin-4-yl}-4-piperidinone] | comparable to clozapine and chloropromazine
27000 | 500 |  |  | O=C1CCN(CC(c2ccccc2)c2ccccc2)CC1C1(O)CCN(CC(c2ccccc2)c2ccccc2)CC1 (stereo not shown) [Compound I, 1-(2,2-diphenylethyl)-3-[1-(2,2-diphenylethyl)-4-hydroxypiperidin-4-yl]-4-piperidinone] | comparable to clozapine and chloropromazine
15000 | 310 | 5900 |  | CC(C)(C)C1(O)CCN(CC2c3ccccc3Oc3ccccc32)CC1.Cl [Compound F, 4-tert-butyl-1-(xanthen-9-ylmethyl)-4-piperidinol, hydrochloride] | comparable to clozapine and chloropromazine
4500 | 290 | 910 |  | CC(C)(C)C1(O)CCN(CC2c3ccccc3Sc3ccccc32)CC1.Cl [Compound G, 4-tert-butyl-1-(thioxanthen-9-ylmethyl)-4-piperidinol, hydrochloride] | comparable to clozapine and chloropromazine
25000 | 90 |  |  | OC1CCN(CC(c2ccccc2)c2ccccc2)CC1C1(O)CCN(CC(c2ccccc2)c2ccccc2)CC1 (stereo not shown) [Compound J, 1-(2,2-diphenylethyl)-3-[1-(2,2-phenylethyl)-4-hydroxypiperidin-4-yl]-4-piperidinol] | comparable to clozapine and chloropromazine
880 | 7.5 | 270 |  | CC(C)(C)C1(O)CCN(CC2c3ccccc3CCc3cc(Cl)ccc32)CC1 (stereo not shown) [Compound B] | comparable to clozapine and chloropromazine
